“Also recorded” adds a separate entry of the source.
Assays:
DCAF15 [1] = target: T1, DCAF15 (Homo sapiens, UniProt Q66K64); experiment: High-throughput screen for DCAF15 stabilization in 293T cells expressing DCAF15 HiBit fusion; assay type: cell-based; conditions: 10 uM, 384 well, measurements every 120 minutes
T1 construct: expressed in transfected cells
Excerpt: Subsequently, in this context, the E3 ligase substrate receptor (SR) stabilization approach was employed in order to identify novel chemical matter that can bind and chemically re-program the substrate receptor DCAF15. To be able to screen a collection of around 8000 small-molecules, a cellular system was developed that enabled monitoring of DCAF15 levels in live cells in multi-well format. To that end, DCAF15 was first knocked out in 293T cells via CRISPR/Cas9 technology. Then, DCAF15 was stably expressed as a HiBit® fusion protein in these cells. After further transducing these cells with LgBit, this allowed live-cell tracing of DCAF15 levels in 384 well format by measuring bioluminescence (FIG. 18). In brief, cells were seeded at a concentration of 250′000 cells/ml in DMEM+10% FCS+25 mM Hepes. The luciferase substrate Endurazine was added at concentrations recommended by the manufacturer. Small-molecules were added at a concentration of 10 uM, and their effect on DCAF15 levels was assayed by continuous bioluminescent imaging (measurements were taken every 120 minutes). […] The known DCAF15 molecular glue indisulam (see FIG. 7) was used as a positive control. In brief, indisulam is known to act as a DCAF15-dependent molecular glue that binds DCAF15 and induced proximity between DCAF15 and RBM39, leading to the degradation of the latter.

KBM7 cells = experiment: Dose-ranging cellular viability assays in neddylation-impaired isogenic KBM7 cells; assay type: cell-based, human
Method: KBM7 cells mutated for five core genes were isolated and the underlying CRISPR-induced mutations were truncations leading to full knockouts (CAND1) or hypomorphic alleles (UBE2M, COPS8, COPS7B, GPS1). […] The observable shift in efficacy was at least 10-fold and up to 1000-fold, thus providing excellent signal to noise ratios. In sum, neddylation-impaired (NEDD^mut) cell line can be applied to find novel, yet uncharacterized MGs.
This is further exemplified when said cells are treated with the compound CC-885 (a molecular glue that reprograms the substrate receptor cereblon/CRBN to degrade GSPT1), or the PROTAC® compound THAL-SNS-032 (known to reprogram the substrate receptor cereblon/CRBN to degrade the cyclin dependent kinase 9, CDK9) (both see appended FIG. 22).
However, not for every cullin RING ligase (CRL), modifications of the COP9 signalosome subunit 8 (COPS8) or CAND1 (Cullin-associated NEDD8-dissociated protein 1; a substrate receptor exchange factor) lead to an ensuing destabilization via auto-degradation. An example for this is the substrate receptor VHL(von-Hippel-Lindau), which is part of the CRL2^VHL ligase complex. […] Therefore, measuring differential sensitivity of cells manipulated to contain altered neddylation states to a molecular glue/PROTAC® compound is a feasible surrogate to measure whether the substrate receptor that is reprogrammed by said molecular glue/PROTAC® undergoes destabilization/auto-degradation upon altering the neddylation states.

RBM39 [2] = target: T2, RBM39 (Homo sapiens, UniProt Q14498+Q66K64); experiment: Western blot of RBM39 levels in KBM7 WT versus DCAF15-deficient cells; assay type: cell-based; parameters: endogenous in cells; conditions: 12 or 16 h treatment
Method: (§1) Given the structural similarity to indisulam, it was assayed if the two new test compounds would similarly lead to the degradation of RBM39 in a DCAF15-dependent manner. Towards that end, their effect on RBM39 levels in wildype cells as well as cells deficient for DCAF15 levels was tested. KBM7 (WT or knockout, FIG. 20) as well as 293T cells (DCAF15-HiBit overexpression vs knockout, see FIG. 21) were tested in various conditions of dCEMM.1 and/or dCEMM.2, comparing their effect to indisulam.

RBM39 [3] = target: T2, RBM39; experiment: Western blot of RBM39 levels in 293T DCAF15 KO versus DCAF15-reconstituted cells; assay type: cell-based; parameters: endogenous in cells; host or cells: 293T DCAF15 KO and 293T reconstituted with tagged DCAF15; conditions: 293T cells reconstituted with tagged DCAF15, 10 h treatment
Method: as §1

DCAF15 [4] = target: T1, DCAF15; experiment: DCAF15 HiBit/LgBit luciferase assay (knock-in or ectopic, live-cell or lytic detection); assay type: cell-based
Method: Generation of HiBit DCAF15 knock-in cells: HEK293t WT cells at 70-80% confluency were transiently transfected in a 6 well plate with a mix of 3 ug Cas9-sgRNA vector (PX458, addgene #48138, containing sgRNA [NT]), 6 ug of single stranded oligonucleotide donor (ssOND, 20 bp homology flanking the cut site) and 3.6 ug polyethylenimine (FIGS. 10 and 12). 72 hrs post-transfection cells were sorted (SH800 Cell sorter, SONY) for GFP positive cells and recovered for 24 hrs in media. Cells were subsequently seeded at a limiting dilution to generate single clones. Clones were tested after outgrowth for HiBit expression by seeding clonal cells in a black clear bottom 384 well plate and adding Nano-Glo HiBit Lytic buffer (Promega, N3030) reconstituted with recombinant LgBit and Nano-Glo HiBit Lytic Substrate in a 1:1 ratio. HiBit-expressing clones were validated by western blotting and detection of luciferase signal (Promega, N2410) at the correct size. For live cell luciferase detection (FIGS. 11 and 13) 7000 HEK293t cells with a HiBit knock-in at the N-terminus of DCAF15 and stable ectopic expression of LgBit were seeded in 10 uL per well into a black, clear-bottom 384 well plate (Corning, #3764) and incubated over night. 20 uL of media containing 1× Endurazine (Promega, N2570) was added to each well and incubated for 1 hour followed by a baseline luciferase measurement using an EnVision plate reader (Perkin Elmer). Subsequently CSN5i-3 or an equal volume of DMSO was added in 10 uL of media to a final concentration of 500 nM in the assay volume of 40 uL. Luciferase signal was measured hourly for 24 hours. For lytic HiBit detection (FIGS. 11 and 14) 10000 cells were seeded in 10 uL per well into a black clear bottom 384 well plate. After recovery cells were treated by addition of iCSN5-3 or an equal volume of DMSO in 10 uL of media to the cells. After the indicated treatment time cells were lysed by adding 20 uL Nano-Glo HiBit Lytic buffer (Promega, N3030) reconstituted with recombinant LgBit and Nano-Glo HiBit Lytic Substrate. Luciferase signal of each well was normalized to the mean DMSO luciferase signal yielding fold-change over DMSO. Luciferase signal was detected essentially as stated for FIG. 13 with the exception that indisulam (Sigma-Aldrich, SML1225) was added together with CSN5i-3 to cells in 10 uL of media to reach the indicated final concentration (FIG. 15). Luciferase signal of each well and timepoint was normalized to the mean DMSO luciferase signal yielding fold-change over DMSO. […] Luciferase signal was detected essentially as stated for FIG. 15 with the exception that indisulam and dCEMM.1 were added together with iCSN5-3 to cells in the 10 uL treatment to a final concertation of 10 uM (FIG. 17). Luciferase signal of each well and timepoint was normalized to the mean DMSO luciferase signal yielding fold-change over DMSO.

T1 sequence (Q66K64 whole entry, the tested form may be a part): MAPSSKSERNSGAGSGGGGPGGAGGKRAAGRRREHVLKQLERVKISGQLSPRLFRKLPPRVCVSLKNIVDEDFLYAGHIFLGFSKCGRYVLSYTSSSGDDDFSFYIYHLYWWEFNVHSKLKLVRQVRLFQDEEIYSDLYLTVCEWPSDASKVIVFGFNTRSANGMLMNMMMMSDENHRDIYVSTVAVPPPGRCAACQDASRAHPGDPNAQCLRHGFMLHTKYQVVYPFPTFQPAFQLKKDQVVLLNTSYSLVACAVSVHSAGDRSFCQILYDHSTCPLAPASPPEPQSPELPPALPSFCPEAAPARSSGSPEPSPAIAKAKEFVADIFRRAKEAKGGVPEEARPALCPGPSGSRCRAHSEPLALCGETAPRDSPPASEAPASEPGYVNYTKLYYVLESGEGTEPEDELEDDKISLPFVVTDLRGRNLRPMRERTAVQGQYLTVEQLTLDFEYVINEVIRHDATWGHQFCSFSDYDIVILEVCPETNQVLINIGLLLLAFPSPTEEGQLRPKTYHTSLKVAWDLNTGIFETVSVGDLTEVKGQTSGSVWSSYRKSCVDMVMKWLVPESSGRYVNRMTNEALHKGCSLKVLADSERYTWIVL

Question: Which “DCAF15 stabilization (relative luciferase signal over time)” value (DCAF15 [1]) does the source give for `NS(=O)(=O)c1ccc(S(=O)(=O)Nc2cccc3c(Cl)c[nH]c23)cc1` [indisulam] here?
Answer: Its value is “pronounced stabilization of DCAF15 over time; also recorded: identified as positive hits; also recorded: significant stabilization of DCAF15 over time”.

Question: What about the “Cytotoxic activity / sensitivity in COPS8- or CAND1-modified cells” value (KBM7 cells; KBM7 cells modified in COPS8 or CAND1 versus non-modified control) of the same compound?
Answer: The value was “resistance to indisulam in both genetic backgrounds; also recorded: reduced activity”.

Question: What about the “Resistance of mutant cells in cellular viability assay” value (KBM7 cells; KBM7 cells mutated in CAND1, UBE2M, COPS8, COPS7B or GPS1 versus wild type) of the same compound?
Answer: The value was “caused resistance”.

Question: What about the “RBM39 levels (western blot)” value (RBM39 [2]) of the same compound?
Answer: The value was “destabilization”.

Question: And the “RBM39 levels (western blot)” value (RBM39 [3])?
Answer: The value was “destabilization”.

Question: And the “DCAF15 re-stabilization (luciferase, fold-change over DMSO)” value (DCAF15 [4]; HiBit knock-in live cells, added together with CSN5i-3 (FIG. 15))?
Answer: Its value is “rescues DCAF15 from auto-degradation; also recorded: DCAF15 re-stabilization”.

Question: What about the “DCAF15 re-stabilization (luciferase, fold-change over DMSO)” value (DCAF15 [4]; live cells, 10 uM, added together with CSN5i-3 (FIG. 17)) of the same compound?
Answer: The value was “rescues DCAF15 from auto-degradation; also recorded: DCAF15 re-stabilization”.
